Test systems include SF-268 CNS; SNB-19 CNS; OVCAR-8 ovarian; COLO 205 colon; OVCAR-3 ovarian; SF-539 CNS; NCI-H522 lung; SK-MEL-28 melanoma; CCRF-CEM leukemia; HOP-62 NSCLC.
What all share (assay): growth of human tumour cells (NCI), 48 h

The results in this text go back to PubChem BioAssay (NCI).

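Five compound concentrations were applied to cells in 96-well plates for 48 hours; endpoints were derived by simple linear interpolation of the resulting dose-response curve. At the GI50, growth is halved. TGI is the concentration that stops growth completely.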

As to `C[C@@H]1CC[C@H]2C(COC/C=C/COCC3=C(C(F)(F)F)O[C@@H]4O[C@@]5(C)CC[C@H]6[C@H](C)CC[C@@H]3[C@@]46OO5)=C(C(F)(F)F)O[C@@H]3O[C@@]4(C)CC[C@@H]1[C@]32OO4`, the GI50 in the assay with SF-268 CNS was 0.0846 µM; with SNB-19 CNS, 0.542 µM; in the assay on OVCAR-8 ovarian it was under 0.0206 µM; in the assay on COLO 205 colon, under 0.0174 µM; with OVCAR-3 ovarian, under 0.0114 µM; in the assay on SF-539 CNS, under 0.0242 µM. In addition, the GI50 with NCI-H522 lung was 0.327 µM; with SK-MEL-28 melanoma, 63.9 µM; in the assay with CCRF-CEM leukemia, 0.0148 µM. The TGI with SF-268 CNS is over 100 µM; in the assay with SNB-19 CNS, over 100 µM; in the assay with OVCAR-8 ovarian, over 32.6 µM; in the assay with OVCAR-3 ovarian, 0.336 µM; in the assay on SF-539 CNS it was over 21.4 µM; in the assay on NCI-H522 lung it was over 100 µM. The TGI with SK-MEL-28 melanoma was over 100 µM; with CCRF-CEM leukemia it was over 38.4 µM; in the assay with HOP-62 NSCLC it was over 100 µM.
Take `CC(C)(C)C1CCC2(CC1)CCN(CCCN1CCOCC1)CC2`: the TGI in the assay with SF-268 CNS is over 100 µM; in the assay on SNB-19 CNS it was over 100 µM; in the assay with OVCAR-8 ovarian it was over 100 µM; with COLO 205 colon it was 32.7 µM; in the assay with OVCAR-3 ovarian, over 100 µM; in the assay with SF-539 CNS it was over 51.1 µM. Moreover, the TGI with NCI-H522 lung was over 71.3 µM; in the assay on SK-MEL-28 melanoma it was 33.2 µM; in the assay on CCRF-CEM leukemia, over 100 µM; in the assay with HOP-62 NSCLC, over 57.8 µM.
For the molecule `O=C1c2ccccc2C(=O)c2c(NCCNC(=O)C3CCCN3)ccc(NCCNC(=O)C3CCCN3)c21` (stereo not drawn), the TGI is over 100 µM with SF-268 CNS; over 100 µM in the assay on SNB-19 CNS; 94.3 µM in the assay on OVCAR-8 ovarian; over 100 µM with COLO 205 colon; over 100 µM in the assay on OVCAR-3 ovarian; over 100 µM in the assay with SF-539 CNS. Further, the TGI in the assay on NCI-H522 lung was 65.2 µM; in the assay with SK-MEL-28 melanoma, over 100 µM; in the assay on CCRF-CEM leukemia it was over 100 µM; in the assay on HOP-62 NSCLC, over 100 µM.
In the case of `COc1cnc2c(c1)C(=O)c1c-2n(CCCN2CCNCC2)c(=O)c2cc(Cl)ccc12`, the GI50 in the assay with SF-268 CNS was 1.07 µM; in the assay with COLO 205 colon, 0.783 µM; in the assay with OVCAR-3 ovarian, 1.43 µM; in the assay on SF-539 CNS, 1.33 µM. Also, the TGI was found to be 2.63 µM with SF-268 CNS, 2.41 µM in the assay with COLO 205 colon, 2.83 µM in the assay with OVCAR-3 ovarian and 2.63 µM with SF-539 CNS.
With `Cn1cnc([N+](=O)[O-])c1SCC(=O)O`, the TGI in the assay with SF-268 CNS, with SNB-19 CNS, in the assay on OVCAR-8 ovarian, with COLO 205 colon, with OVCAR-3 ovarian and in the assay with NCI-H522 lung was over 100 µM throughout. Further, the TGI in the assay on SK-MEL-28 melanoma, in the assay on CCRF-CEM leukemia and with HOP-62 NSCLC was over 100 µM throughout.
For `C[C@H]1CCC/C=C/[C@@H]2C[C@H](O)C[C@H]2[C@H](O)[C@@H](S(=O)CCN)CC(=O)O1` (stereo partly drawn), the TGI in the assay on SF-268 CNS is over 100 µM; in the assay on SNB-19 CNS it was over 100 µM; with OVCAR-8 ovarian it was 0.154 µM; with COLO 205 colon it was 0.0436 µM; with NCI-H522 lung, 0.926 µM; in the assay with SK-MEL-28 melanoma, over 100 µM. In addition, the TGI in the assay with HOP-62 NSCLC is over 58.9 µM. Besides, the GI50 in the assay with SNB-19 CNS was 0.21 µM; in the assay on OVCAR-8 ovarian it was under 0.0181 µM; in the assay on COLO 205 colon, under 0.0156 µM; in the assay on OVCAR-3 ovarian it was 0.0495 µM; with SF-539 CNS, under 0.0176 µM; with NCI-H522 lung, 0.0986 µM. In addition, the GI50 is 0.0475 µM in the assay on SK-MEL-28 melanoma, 0.0729 µM in the assay with CCRF-CEM leukemia and 0.13 µM in the assay with HOP-62 NSCLC.
On to `C[n+]1cccc(/C=C/c2ccc3cccc(O)c3n2)c1`, for which the TGI in the assay with SF-268 CNS, in the assay on SNB-19 CNS, with OVCAR-8 ovarian, with COLO 205 colon, in the assay on OVCAR-3 ovarian and in the assay on SF-539 CNS was over 100 µM in each case. Besides, the TGI was 92.6 µM with NCI-H522 lung, over 100 µM in the assay with SK-MEL-28 melanoma, over 100 µM with CCRF-CEM leukemia and over 100 µM in the assay on HOP-62 NSCLC.
As for `O=C(c1cc(Br)ccc1O)c1cc(Br)ccc1O`, the TGI came out at 42.4 µM in the assay on SF-268 CNS; 32.3 µM in the assay with SNB-19 CNS; 32 µM in the assay on OVCAR-8 ovarian; 33.4 µM with COLO 205 colon; 29.2 µM with OVCAR-3 ovarian; 38.2 µM in the assay with SF-539 CNS. For the same molecule, the TGI was 33 µM in the assay on NCI-H522 lung, 31.1 µM in the assay on SK-MEL-28 melanoma, 44.4 µM in the assay on CCRF-CEM leukemia and 34.3 µM in the assay on HOP-62 NSCLC.
Turning to `CCOC(=O)N1c2ccccc2S(=O)(=O)c2ccccc21`, the TGI in the assay with SF-268 CNS, in the assay on SNB-19 CNS, in the assay on OVCAR-8 ovarian, in the assay on COLO 205 colon, in the assay with OVCAR-3 ovarian and in the assay on SF-539 CNS was over 100 µM each time. Besides, the TGI in the assay with NCI-H522 lung, with SK-MEL-28 melanoma, with CCRF-CEM leukemia and in the assay on HOP-62 NSCLC was over 100 µM in each case.
With `COc1ccc(-n2c3c(c4cc(O)ccc42)C(=O)c2ccccc2C3=O)cc1`, the TGI in the assay with SF-268 CNS is 14.8 µM; in the assay on SNB-19 CNS it was over 100 µM; with OVCAR-8 ovarian, 13.6 µM; with COLO 205 colon, over 100 µM; with OVCAR-3 ovarian, 27.2 µM; in the assay on SF-539 CNS, 11.5 µM. The figures for the TGI in the assay on NCI-H522 lung, with SK-MEL-28 melanoma and with HOP-62 NSCLC were over 100 µM, over 100 µM and 12.7 µM, respectively.
Turning to `Oc1cc(O)cc(/C=C/c2ccc(O)c(O)c2)c1`, the TGI with SF-268 CNS was 56.3 µM; in the assay with SNB-19 CNS, over 88.4 µM; with OVCAR-8 ovarian it was over 100 µM; in the assay with COLO 205 colon, over 62.1 µM; with OVCAR-3 ovarian, over 100 µM; in the assay on SF-539 CNS, 22.9 µM. Besides, the TGI in the assay with NCI-H522 lung was 7.17 µM; in the assay with SK-MEL-28 melanoma, over 100 µM; with CCRF-CEM leukemia, 24.3 µM; in the assay on HOP-62 NSCLC, 28.7 µM.
For `Cc1cc(=O)[nH]c(NN2C(Cl)C(=O)C2c2cccc([N+](=O)[O-])c2)n1` (stereo not drawn), the TGI was over 100 µM in the assay with SF-268 CNS; over 100 µM in the assay with SNB-19 CNS; over 100 µM in the assay with OVCAR-8 ovarian; 51.6 µM in the assay on COLO 205 colon; 32.3 µM in the assay with OVCAR-3 ovarian; 47.2 µM in the assay with SK-MEL-28 melanoma. The TGI in the assay on CCRF-CEM leukemia was 10.3 µM; in the assay on HOP-62 NSCLC it was over 100 µM.
Consider `CN(C)c1ccc(C2CC(=O)C(C#N)=C(c3ccccc3)NN2C)cc1` (stereo not drawn), for which the TGI was over 100 µM in the assay with SF-268 CNS; over 100 µM with SNB-19 CNS; 28.5 µM in the assay on NCI-H522 lung; over 100 µM with SK-MEL-28 melanoma; 62.5 µM with HOP-62 NSCLC.
